Measured values as given in PubChem BioAssay AID2401 (Southern Research Specialized Biocontainment Screening …, 2010).
pIC50: −log10 of the molar value.

System: S. Typhimurium GFP reporter counter-screen, fluorescence, 4 h
Test: nmpC-GFP reporter counter-screen in S. Typhimurium, dose response, counter-screen for PhoP regulon inhibitor project, Salmonella Typhimurium, GFP fluorescence (AID 2401);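 also: S. typhimurium with Mg-insensitive nmpC-GFP reporter grown at 10 µM Mg2+; drop in reporter fluorescence reflects general culture growth inhibition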

Row | SMILES | pIC50
1 | OC(CNCCc1ccccc1)COc1ccc(OCC(O)CNCCc2ccccc2)cc1 (stereo not drawn) | 4.20
2 | NCC12CC3CC(C1)CC(c1ccc(Br)cc1)(C3)C2 | 4.39
3 | CC(=O)N1CCN(c2cc3c(cc2F)c(=O)c(C(=O)O)cn3C2CC2)CC1 | 4.44
4 | Cc1ccc(Nc2cc(C)nn2-c2nc(C)cc(=O)[nH]2)cc1 | 4.88
5 | O=C(C[n+]1cc(-c2ccc(Cl)c(Cl)c2)n2c1CCC2)N1c2ccccc2Sc2ccccc21 | 4.31
6 | CC(=O)NC(c1ccc(Cl)cc1Cl)c1ccc2cccnc2c1O (stereo not drawn) | 4.31
7 | CCc1ccc(-c2nn(-c3ccccc3)cc2CSC(=N)N)cc1 | 4.27
8 | Cn1cnc([N+](=O)[O-])c1Oc1cccc(O)c1 | 3.84
9 | O=C(Nc1cccc(N=Cc2cc(Br)cc(Br)c2O)c1)c1ccco1 | 3.98
10 | CCc1ccc(S(=O)(=O)/N=C2/C=C(Sc3ncn[nH]3)C(=O)c3ccccc32)cc1 | 4.11
11 | CCn1c(N)[n+](CC(=O)Nc2ccc(SC(F)F)cc2)c2ccccc21 | 3.88
12 | CCCCCCCCCCCCCCCCn1cc[n+](CC(C)=O)c1 | 4.47
13 | COc1ccc(C(C[N+](=O)[O-])n2nc(C)cc2C)cc1 (stereo not drawn) | 4.87
14 | O=[N+]([O-])c1cc(Cl)c(O)c2ncccc12 | 5.30
15 | O=C(N/N=C\C=C\c1ccc([N+](=O)[O-])o1)c1cccs1 | 4.68
16 | CC(C)Oc1ccc(Cc2cnc(N)nc2N)cc1 | 4.47
17 | C[C@H]1O[C@@H](n2cc(F)c(=O)[nH]c2=O)[C@H](O)[C@@H]1O | 4.41
18 | O=C(N/N=C/c1cc([N+](=O)[O-])ccc1O)C1CC1 | 4.47
19 | O=C(N/N=C/c1cc([N+](=O)[O-])ccc1O)c1ccncc1 | 4.62
20 | CCCCCCCSc1cc(OC)c(CCNC)cc1OC | 4.41
21 | CCN(CC)S(=O)(=O)c1cccc(C(=O)N/N=C/c2ccc(O)c(O)c2O)c1 | 4.01
22 | O=[N+]([O-])c1ccc(N/N=C/c2ccc[nH]2)cc1 | 4.21
23 | CC(C)NC1=C(Cl)C(=O)c2ccccc2C1=O | 4.42

Row | SMILES | pIC50
24 | CCCc1cnc(NCCNCC(O)COc2ccc(Cl)c(Cl)c2)nc1 (stereo not drawn) | 4.39
25 | O=C(N/N=C/c1c[nH]c2ccccc12)c1cc(-c2ccc3ccccc3c2)n[nH]1 | 4.32
26 | Oc1ccc(CN2CCCc3ccccc32)c2cccnc12 | 4.55
27 | CO/N=C(/C(=O)N[C@@H]1C(=O)N2C(C(=O)O)=CCS[C@H]12)c1cnc(N)s1 | 4.73
28 | CN(C)c1ccc(/C=C/c2ccc3ccccc3[n+]2C)cc1 | 4.70
29 | Cc1cccc(Nc2c3c(nc4ccccc24)CCC3)c1 | 3.96
30 | O=C(CSc1ccccn1)N/N=C/c1cc([N+](=O)[O-])ccc1O | 4.46
31 | CCOC(=O)N1CCN(C(=O)c2cn(CC)c3cc(N4CCN(C)CC4)c(F)cc3c2=O)CC1 | 4.92
32 | Cc1cc2nc3ccc(=[N+](C)C)cc-3sc2cc1N | 4.44
33 | CCOC(=O)N1CCN(C(c2cccnc2)c2ccc3cccnc3c2O)CC1 (stereo not drawn) | 4.38
34 | O=C(CN1CC(c2ccccc2)CC1=O)N/N=C/c1cc(Br)ccc1O (stereo not drawn) | 3.86
35 | CCCCCCCCCCOC(=O)Cn1c(COc2cccc(C)c2)[n+](C)c2ccccc21 | 4.71
36 | Cc1ccc(Nc2nc(NCc3ccco3)c3ccccc3n2)cc1 | 4.65
37 | NC1=NC[C@H](Cc2ccc(O)cc2)N1CCC12CC3CC(CC(C3)C1)C2 | 4.15
38 | Cc1ccc(-c2csc(NC(=O)C[n+]3cc(-c4ccc(C)cc4)n4c3CCC4)n2)cc1 | 4.42
39 | Cc1ccc(-c2csc(N=C(N)N)n2)c(C)c1 | 4.24
40 | CCn1cc(C(=O)NCCCO)c(=O)c2cc(F)c(N3CCN(C)CC3)cc21 | 4.33
41 | COC(=O)c1cc(C)nc2c1C(=O)C(=O)C=C2N1CCOCC1 | 3.93
42 | O=C1C=C(O)c2c(O)cc(O)c(O)c2C1=O | 4.11
43 | CC[n+]1c(/C=C/N(C)c2ccccc2)n(-c2ccccc2)c2ccc(-c3nc4ccccc4s3)cc21 | 4.71
44 | Cc1cc(C)n(-c2nc(NCCN(C)C)c3c4c(sc3n2)CCCC4)n1 | 4.04
45 | ON=C1/C(=N\O)CC2(C/C1=N/O)OCCO2 | 4.01
46 | CC1CCc2cc(F)cc3c(=O)c(C(=O)O)cn1c23 (stereo not drawn) | 4.68

Row | SMILES | pIC50
47 | CC(=O)NC(c1cccc([N+](=O)[O-])c1)c1ccc2cccnc2c1O (stereo not drawn) | 4.33
48 | O=C(c1ccc(F)cc1)C(CN1CCOCC1)c1ccccc1 (stereo not drawn) | 3.84
49 | O=[N+]([O-])c1cc(/C=N/Nc2nc3ccccc3[nH]2)c(O)cc1O | 4.74
50 | O=C1OC(/C(=C\Nc2ccc(F)cc2F)[N+](=O)[O-])c2ccccc21 (stereo not drawn) | 4.21
51 | CCCCCCCNC(=O)C1(CC2CC(c3cccc(Br)c3)=NO2)CCNCC1 (stereo not drawn) | 4.42
52 | O=Cc1ccc(O)c2ncccc12 | 5.09
53 | Cc1ccc(Nc2nc(N)c3ccccc3n2)cc1Cl | 4.28
54 | O=Nc1ccc(O)c2ncccc12 | 4.21
55 | O=[N+]([O-])c1ccc(O)c2ncccc12 | 5.63
56 | O=[N+]([O-])c1ccc(Sc2nc3ccccc3o2)c([N+](=O)[O-])c1 | 3.99
57 | COc1c(F)c(F)cc2c(=O)c(C(=O)O)cn(C3CC3)c12 | 4.07
58 | Cc1c2ccncc2c(C)c2c1[nH]c1ccccc12 | 4.71
59 | CC(C)(C)CC(C)(C)c1ccc(OCCOCC[N+](C)(C)Cc2ccccc2)cc1 | 4.48
60 | CN1/C(=C\C=C\C2=[N+](C)c3ccc4ccccc4c3C2(C)C)C(C)(C)c2ccccc21 | 5.03
61 | CCOc1ccc(NC(=O)c2ccc(NC(=O)c3cn4c5c(c(N6CCN(C)CC6)c(F)cc5c3=O)OCC4C)cc2)cc1 (stereo not drawn) | 5.19
62 | O=C1c2ccccc2NC(c2ccc(-c3ccc(Br)cc3)o2)N1O (stereo not drawn) | 4.41
63 | O=C(Cc1c[nH]c2ccccc12)N/N=C/c1ccccc1O | 4.05
64 | O=C(Nc1ccccc1)Nc1ccc(Cl)c([N+](=O)[O-])c1 | 4.37
65 | Cc1scc(C(=O)N/N=C/c2ccc([N+](=O)[O-])o2)c1C | 3.94
66 | CS(=O)(=O)c1ccc([C@@H](O)[C@@H](CF)NC(=O)C(Cl)Cl)cc1 | 4.78
67 | CN1CCN(C(c2ccc(Br)cc2)c2cc(Cl)c3cccnc3c2O)CC1 (stereo not drawn) | 4.70
68 | CCOC(=O)C1=Nc2ccccc2C1=[N+]=[N-] | 4.37
69 | O=S1(=O)Nc2c(ccc3cccnc23)-c2ccccc21 | 5.56

Row | SMILES | pIC50
70 | CCn1cc(C(=O)O)c(=O)c2cc(F)c(N3CCN(C(=S)NC(=O)c4ccc(F)cc4)CC3)cc21 | 3.98
71 | Oc1ccc(/C=N/Nc2nccnc2Cl)c(O)c1 | 4.46
72 | Cc1nc2c(=O)n(C)c(=O)nc-2n(C)n1 | 5.96
73 | COc1ccccc1CNCC(O)Cn1c2ccccc2c2ccccc21 (stereo not drawn) | 4.04
74 | COc1cccc(/C=N\NC(=O)Cn2nnc3ccccc32)c1O | 4.24
75 | O=C(Nc1nnc(-c2cccs2)o1)c1cccc(Oc2ccccc2)c1 | 4.39
76 | COc1c(N2CCNC(C)C2)c(F)cc2c(=O)c(C(=O)O)cn(C3CC3)c12 (stereo not drawn) | 5.98
77 | Oc1c(CN2CCN(c3ccc(F)cc3)CC2)cc(Cl)c2cccnc12 | 4.70
78 | CO[C@H]1/C=C/O[C@@]2(C)Oc3c(C)c(O)c4c(O)c(c(C=NN5CCN(C)CC5)c(O)c4c3C2=O)NC(=O)/C(C)=C\C=C\[C@H](C)[C@H](O)[C@@H](C)[C@@H](O)[C@@H](C)[C@H](OC(C)=O)[C@@H]1C | 5.19
79 | Oc1c(C(Nc2ccccn2)c2ccccn2)ccc2cccnc12 (stereo not drawn) | 4.40
80 | COc1ccc(OCC(O)CNc2ccc(Br)cc2)cc1 (stereo not drawn) | 4.85
81 | CC1(C)CC(=O)C(C(=O)/C=C/NCCc2ccccc2)C(=O)C1 | 3.91
82 | O=C(CN1CCCC1)N/N=C/c1c(O)ccc2ccccc12 | 4.52
83 | Oc1ccc(/C=N/Nc2ncc(Br)cn2)c(O)c1 | 4.15
84 | O=C(N/N=C/c1cc(Cl)ccc1O)c1cccnc1 | 4.59
85 | Nc1ccc2c(c1)C(=O)C(=O)c1ccccc1-2 | 4.96
86 | CCCCCCCCn1c2c(c(=N)c3ccccc31)CCC2 | 4.41
87 | CN(Cc1ccccc1)CC(O)COc1ccc(CNCc2ccc(Cl)s2)cc1 (stereo not drawn) | 4.04
88 | CNC[C@H](CC1CCCCC1)NC[C@H](Cc1ccccc1)NCCC12CC3CC(CC(C3)C1)C2 | 4.79
89 | C#CCOCCOCCOCCNc1nc(N2CCN(C(=O)CCCCCCCCCCNC(=O)[C@H](CO)n3cc(CCCCCN)nn3)CC2)nc(N2CCN(C(=O)CCCCCCCCCCNC(=O)[C@H](CCCN=C(N)N)n3cc(C[C@@H](C)CC)nn3)CC2)n1 | 4.06
90 | CC(C)COc1ccc(Cc2cnc(N)nc2N)cc1 | 4.21
91 | Oc1c(Br)cc(Br)cc1C=NCc1ccccc1 | 4.00
92 | Oc1ccc(CN2CCc3ccccc3C2)c2cccnc12 | 4.73

Row | SMILES | pIC50
93 | Cc1cc(C(=O)N/N=C/c2ccc(O)c(O)c2O)c(C)n1-c1ccccc1 | 4.64
94 | CC(Cc1ccccc1)NCc1ccccc1O (stereo not drawn) | 4.55
95 | CCCCCCCCCC[N+](C)(C)CC/C=C1/c2ccccc2Sc2ccc(Cl)cc21 | 4.72
96 | O=C(N/N=C/c1cc2c3c(c1O)CCCN3CCC2)c1ccccc1O | 4.02
97 | CCC(C)(C)c1ccc(OCCCC[n+]2ccccc2)c(C(C)(C)CC)c1 | 4.46
98 | CCOC(=O)Cc1csc(NC(=O)NC2(C(F)(F)F)Oc3cc(Cl)c(Cl)cc3O2)n1 | 4.13
99 | CCCCCCCCNc1ncnc2ccccc12 | 3.82
100 | CC(C(=O)NC1CCS(=O)(=O)C1)N1C(=O)/C(=C/c2ccc(Cl)cc2)SC1=S (stereo not drawn) | 4.94
101 | Cc1cc(/C=N/n2c(COc3ccccc3)nc3ccccc3c2=O)c(O)c([N+](=O)[O-])c1 | 4.25
102 | CC1CCc2c(N3CCC(O)CC3)c(F)cc3c(=O)c(C(=O)O)cn1c23 (stereo not drawn) | 4.82
103 | CNC(=S)N1CCN(c2c(F)cc3c(=O)c(C(=O)O)cn(C4CC4)c3c2OC)CC1C (stereo not drawn) | 4.35
104 | O=c1[nH][nH]c(-c2ccccc2O)c1C(C[N+](=O)[O-])c1cccc(Cl)c1 (stereo not drawn) | 4.16
105 | CCCNC(=O)c1cn(CC)c2cc(N3CCN(C)CC3)c(F)cc2c1=O | 4.32
106 | OCCNCc1c(OCc2ccc(Cl)cc2)ccc2ccccc12 | 4.05
107 | Nc1ccc2nc(-c3cc(Cl)c(N)c(Cl)c3)[nH]c2c1 | 4.09
108 | Cc1onc(-c2ccccc2)c1C(=O)NC(=S)NNC(=O)c1ccc(O)cc1O | 3.92
109 | CC(=O)Oc1ccc(C(=O)[C@H]2[C@H]3C(=O)N(c4ccc5ccccc5c4)C(=O)[C@H]3[C@@H]3C=CC=NN32)cc1 | 3.89
110 | CCCCOc1ccc(Cc2cnc(N)nc2N)cc1 | 4.42
111 | CCCCCCCCCn1c2c(c(=N)c3c1CCC3)CCCC2 | 4.50
112 | CCN1/C(=C/C=C/c2sc3ccccc3[n+]2CC)Sc2ccccc21 | 4.48
113 | Oc1c(CN2CCOCC2)cc(COCc2ccccc2)c2cccnc12 | 4.16
